In ChEMBL document CHEMBL4419166, “Use of small molecule inhibitors to klf10 for modulation of t regulatory cells and cancer immunotherapy” (2017):
The source made the active and inactive calls. The calls are words filed in the database; no cut-off is given here.

What was measured:
[1] = target: Krueppel-like factor 1 (Homo sapiens) (UniProt Q13351); experiment: Inhibition of GST-tagged KLF1 (unknown origin) binding to double-stranded DNA at 40 uM by electromobility gel shift assay relative to control
Chain of Krueppel-like factor 1 (Homo sapiens) (Q13351 whole entry): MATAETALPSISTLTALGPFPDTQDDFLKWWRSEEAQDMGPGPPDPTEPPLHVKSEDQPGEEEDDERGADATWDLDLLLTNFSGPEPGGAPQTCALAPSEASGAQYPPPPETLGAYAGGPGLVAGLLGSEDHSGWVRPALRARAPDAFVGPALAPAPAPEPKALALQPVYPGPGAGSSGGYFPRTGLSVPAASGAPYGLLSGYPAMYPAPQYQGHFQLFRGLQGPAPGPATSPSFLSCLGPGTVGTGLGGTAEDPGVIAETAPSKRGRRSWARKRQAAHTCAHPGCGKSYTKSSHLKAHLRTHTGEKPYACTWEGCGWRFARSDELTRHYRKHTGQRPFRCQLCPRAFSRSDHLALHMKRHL

[2] = target: T1, Krueppel-like factor 10 (Mus musculus) (UniProt O89091); experiment: Inhibition of KLF10 in mouse CD4+CD25- T cells assessed as reduction in checkpoint markers on iTregs by measuring CTLA4 expression level; type: cell-based; set-up: scale not given: the % may be the effect or the level left
T1 sequence (whole entry): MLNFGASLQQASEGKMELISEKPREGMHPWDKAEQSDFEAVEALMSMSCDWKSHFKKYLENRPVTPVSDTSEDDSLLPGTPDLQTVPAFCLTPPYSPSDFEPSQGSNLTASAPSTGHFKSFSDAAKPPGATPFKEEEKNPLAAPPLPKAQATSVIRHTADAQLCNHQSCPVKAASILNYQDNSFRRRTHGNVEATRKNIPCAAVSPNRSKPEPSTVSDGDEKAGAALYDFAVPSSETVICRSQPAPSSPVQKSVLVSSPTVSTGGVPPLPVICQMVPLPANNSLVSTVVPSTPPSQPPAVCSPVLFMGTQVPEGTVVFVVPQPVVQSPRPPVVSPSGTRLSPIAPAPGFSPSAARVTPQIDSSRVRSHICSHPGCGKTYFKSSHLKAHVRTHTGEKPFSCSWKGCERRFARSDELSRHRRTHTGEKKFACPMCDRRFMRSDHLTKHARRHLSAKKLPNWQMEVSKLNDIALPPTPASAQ

[3] = target: T1, Krueppel-like factor 10 (Mus musculus); experiment: Inhibition of KLF10 in mouse CD4+CD25- T cells assessed as reduction in Foxp3 mRNA expression incubated for 5 days by real time qPCR analysis relative to control; type: cell-based
Mus musculus [4] = experiment: Antitumor activity against mouse TRAMP-C2 cells implanted in mouse assessed as reduction tumor volume at 200 mg/kg, ip dosed on day 3 to 7; type: functional, organism-based
[5] = target: T1, Krueppel-like factor 10 (Mus musculus); experiment: Inhibition of KLF10 in mouse CD4+CD25- T cells assessed as reduction in checkpoint markers on iTregs by measuring PDL1 expression level; type: cell-based; set-up: scale not given: the % may be the effect or the level left
[6] = target: T1, Krueppel-like factor 10 (Mus musculus); experiment: Inhibition of KLF10 in mouse CD4+CD25- T cells assessed as reduction in checkpoint markers on iTregs by measuring PD1 expression level; type: cell-based; set-up: scale not given: the % may be the effect or the level left
[7] = target: Krueppel-like factor 1 (Homo sapiens) (UniProt Q13351); experiment: Inhibition of GST-tagged KLF1 (unknown origin) binding to double-stranded DNA at 8 uM by electromobility gel shift assay relative to control
B16 [8] = experiment: Antitumor activity against mouse B16 cells implanted in mouse assessed as reduction tumor volume at 200 mg/kg, ip dosed on day 3 to 7; type: functional, organism-based
Mus musculus [9] = experiment: Suppression of TGF-beta1 expression in CD4+ T cells isolated from mouse B16 cells implanted mouse at 25 to 100 mg/kg, ip; type: functional, organism-based
B16 [10] = experiment: Antitumor activity against mouse B16cells implanted in mouse assessed as reduction tumor volume at 20 mg/kg dosed via local injection on day 0 and measured from day 4 to day 13; type: functional, organism-based
[11] = target: T1, Krueppel-like factor 10 (Mus musculus); experiment: Inhibition of KLF10 in mouse CD4+CD25- T cells assessed as reduction in Foxp3 mRNA expression at 50 uM incubated for 5 days by real time qPCR analysis relative to control; type: cell-based
[12] = target: T1, Krueppel-like factor 10 (Mus musculus); experiment: Inhibition of KLF10 in mouse CD4+CD25- T cells assessed as reduction in PD1 mRNA expression at 50 uM incubated for 5 days by real time qPCR analysis relative to control; type: cell-based

| inhibition [1] | Activity [2] [%] | inhibition [3] | Activity [5] [%] | Activity [6] [%] | inhibition [7] | inhibition [11] [%] | inhibition [12] | SMILES | inhibition (Mus musculus [4]) | inhibition (B16 [8]) | inhibition (Mus musculus [9]) | Activity (B16 [10]) |
| --- | --- | --- | --- | --- | --- | --- | --- | --- | --- | --- | --- | --- |
| inactive | 88.7 | Active | 43.7 | 49.4 | inactive |  |  | Cc1ccc(OCC(=O)c2cc(C)c(O)cc2O)cc1 | Active | Active | Active | Active |
| inactive | 92 | Active | 53.1 | 47.6 | inactive | 82.5 | Active | COc1ccc(C(=O)COC(=O)c2cc(C)ccc2O)cc1 |  |  |  |  |
